Legend:
FGFR2 = FGFR2 (Homo sapiens (Human), UniProt P21802); test: FGFR Enzymatic Assay (FRET peptide phosphorylation), FGFR2; conditions: read-out: FGFR2 IC50; pre-incubated for 4 hours
Excerpt: (§1) The enzymes were purchased from Millipore or Invitrogen.
(§2) GraphPad prism3 was used to analyze the data. The IC50 values were derived by fitting the data to the equation for a sigmoidal dose-response with a variable slope. Y=Bottom+(Top-Bottom)/(1+10^((LogIC50−X)*HillSlope)) where X is the logarithm of concentration and Y is the response.

FGFR4 = FGFR4 (Homo sapiens (Human), UniProt P22455); test: FGFR Enzymatic Assay (FRET peptide phosphorylation), FGFR4; conditions: pre-incubated for 4 hours; for FGFR1/FGFR4 IC50 ratio / FGFR2/FGFR4 IC50 ratio / FGFR3/FGFR4 IC50 ratio: IC50 ratio showing FGFR4 selectivity; for IC50: read-out: FGFR4 IC50
Excerpt: as §1, §2

FGFR3 = FGFR3 (Homo sapiens (Human), UniProt P22607); test: FGFR Enzymatic Assay (FRET peptide phosphorylation), FGFR3; conditions: read-out: FGFR3 IC50; pre-incubated for 4 hours
Chain of FGFR3 (P22607 23-806): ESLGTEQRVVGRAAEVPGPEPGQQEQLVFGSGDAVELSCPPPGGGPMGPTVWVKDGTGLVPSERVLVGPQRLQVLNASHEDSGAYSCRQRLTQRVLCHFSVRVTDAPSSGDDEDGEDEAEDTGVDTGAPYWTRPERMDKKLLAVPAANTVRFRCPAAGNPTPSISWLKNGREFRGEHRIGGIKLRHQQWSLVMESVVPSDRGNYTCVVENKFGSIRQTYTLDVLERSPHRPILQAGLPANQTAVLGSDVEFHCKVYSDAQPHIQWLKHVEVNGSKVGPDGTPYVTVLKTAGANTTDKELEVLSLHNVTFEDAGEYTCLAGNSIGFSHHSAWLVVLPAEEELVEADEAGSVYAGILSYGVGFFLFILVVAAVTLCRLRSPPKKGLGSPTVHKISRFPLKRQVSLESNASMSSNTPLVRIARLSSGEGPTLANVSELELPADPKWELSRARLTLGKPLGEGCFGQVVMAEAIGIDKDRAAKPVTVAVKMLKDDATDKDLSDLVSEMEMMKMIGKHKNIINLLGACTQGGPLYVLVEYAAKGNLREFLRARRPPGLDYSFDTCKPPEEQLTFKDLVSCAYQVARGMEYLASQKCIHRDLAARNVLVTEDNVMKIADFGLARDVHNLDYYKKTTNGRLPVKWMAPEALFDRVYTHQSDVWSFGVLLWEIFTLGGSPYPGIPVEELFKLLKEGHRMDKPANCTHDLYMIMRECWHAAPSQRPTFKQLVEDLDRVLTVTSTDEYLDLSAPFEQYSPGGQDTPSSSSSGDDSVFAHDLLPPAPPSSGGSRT
Excerpt: as §1, §2

FGFR1 = FGFR1 (Homo sapiens (Human), UniProt P11362); test: FGFR Enzymatic Assay (FRET peptide phosphorylation), FGFR1; conditions: read-out: FGFR1 IC50; pre-incubated for 4 hours
Chain of FGFR1 (P11362 22-822): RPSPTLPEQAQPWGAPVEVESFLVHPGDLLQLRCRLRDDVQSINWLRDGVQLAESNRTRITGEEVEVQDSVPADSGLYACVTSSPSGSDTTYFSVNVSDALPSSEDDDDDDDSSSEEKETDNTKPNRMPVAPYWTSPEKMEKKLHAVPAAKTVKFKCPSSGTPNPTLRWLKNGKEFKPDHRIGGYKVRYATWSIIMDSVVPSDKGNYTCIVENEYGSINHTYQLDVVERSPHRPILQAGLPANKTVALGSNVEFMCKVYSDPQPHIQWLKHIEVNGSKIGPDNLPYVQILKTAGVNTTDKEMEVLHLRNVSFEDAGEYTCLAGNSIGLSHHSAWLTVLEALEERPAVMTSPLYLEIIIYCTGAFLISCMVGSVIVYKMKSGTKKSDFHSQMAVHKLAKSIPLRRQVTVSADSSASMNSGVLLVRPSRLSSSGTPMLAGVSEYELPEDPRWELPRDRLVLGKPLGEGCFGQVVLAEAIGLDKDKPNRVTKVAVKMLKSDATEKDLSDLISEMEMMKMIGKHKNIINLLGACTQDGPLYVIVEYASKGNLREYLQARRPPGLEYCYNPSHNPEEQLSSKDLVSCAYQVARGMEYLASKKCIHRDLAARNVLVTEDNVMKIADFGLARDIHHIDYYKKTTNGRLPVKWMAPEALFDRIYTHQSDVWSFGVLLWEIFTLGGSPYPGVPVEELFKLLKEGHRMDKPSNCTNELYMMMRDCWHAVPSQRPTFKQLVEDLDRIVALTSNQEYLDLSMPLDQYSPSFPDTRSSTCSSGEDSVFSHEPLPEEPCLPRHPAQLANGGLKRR
Excerpt: as §1, §2

Chain of FGFR4 (P22455 22-802): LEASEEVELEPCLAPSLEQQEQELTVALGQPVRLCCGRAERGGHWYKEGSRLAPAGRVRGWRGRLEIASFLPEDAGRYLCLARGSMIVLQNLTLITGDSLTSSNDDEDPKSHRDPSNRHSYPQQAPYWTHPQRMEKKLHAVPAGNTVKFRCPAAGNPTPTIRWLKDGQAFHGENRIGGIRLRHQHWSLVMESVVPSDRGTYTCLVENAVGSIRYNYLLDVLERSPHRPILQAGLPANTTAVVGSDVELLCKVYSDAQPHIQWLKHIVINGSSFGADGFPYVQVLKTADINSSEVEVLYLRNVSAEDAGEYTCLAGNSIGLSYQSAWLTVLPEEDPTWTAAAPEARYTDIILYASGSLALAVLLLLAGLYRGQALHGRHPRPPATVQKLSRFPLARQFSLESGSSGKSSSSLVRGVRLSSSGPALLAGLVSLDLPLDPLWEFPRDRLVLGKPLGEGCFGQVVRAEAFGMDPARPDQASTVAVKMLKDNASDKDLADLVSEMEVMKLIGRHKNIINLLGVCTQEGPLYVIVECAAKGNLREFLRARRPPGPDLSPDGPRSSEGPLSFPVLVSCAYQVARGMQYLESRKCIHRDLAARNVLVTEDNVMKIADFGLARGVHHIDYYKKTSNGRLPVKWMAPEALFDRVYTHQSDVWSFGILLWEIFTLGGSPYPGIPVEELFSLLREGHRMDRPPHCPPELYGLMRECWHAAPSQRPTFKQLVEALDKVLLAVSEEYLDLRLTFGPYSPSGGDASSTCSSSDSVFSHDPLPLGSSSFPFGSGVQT
Chain of FGFR2 (P21802 22-821): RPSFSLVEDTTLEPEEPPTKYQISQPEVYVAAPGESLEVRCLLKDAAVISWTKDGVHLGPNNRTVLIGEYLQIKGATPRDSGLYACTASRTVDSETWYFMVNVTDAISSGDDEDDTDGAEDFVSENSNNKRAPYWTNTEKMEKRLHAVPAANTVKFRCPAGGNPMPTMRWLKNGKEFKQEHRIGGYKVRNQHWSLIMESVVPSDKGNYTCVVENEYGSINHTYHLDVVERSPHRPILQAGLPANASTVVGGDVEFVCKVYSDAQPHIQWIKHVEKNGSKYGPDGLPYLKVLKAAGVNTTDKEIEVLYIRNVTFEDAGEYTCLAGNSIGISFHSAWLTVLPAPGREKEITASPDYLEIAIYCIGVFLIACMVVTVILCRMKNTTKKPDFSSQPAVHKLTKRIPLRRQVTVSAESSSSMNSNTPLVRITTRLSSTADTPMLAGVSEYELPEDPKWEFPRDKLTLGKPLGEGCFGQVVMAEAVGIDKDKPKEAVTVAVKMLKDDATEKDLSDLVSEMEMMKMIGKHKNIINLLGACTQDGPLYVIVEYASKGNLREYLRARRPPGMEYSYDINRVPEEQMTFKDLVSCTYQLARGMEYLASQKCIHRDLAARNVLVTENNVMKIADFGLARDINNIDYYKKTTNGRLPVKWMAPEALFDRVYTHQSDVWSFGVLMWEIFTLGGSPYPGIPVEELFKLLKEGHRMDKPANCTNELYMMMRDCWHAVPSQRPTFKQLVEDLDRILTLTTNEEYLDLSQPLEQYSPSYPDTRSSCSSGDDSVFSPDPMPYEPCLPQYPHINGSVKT

Structure (SMILES) | IC50 (FGFR2) [nM] | FGFR1/FGFR4 IC50 ratio (FGFR4) | FGFR2/FGFR4 IC50 ratio (FGFR4) | FGFR3/FGFR4 IC50 ratio (FGFR4) | IC50 (FGFR4) [nM] | IC50 (FGFR3) [nM] | IC50 (FGFR1) [nM]
C=CC(=O)Nc1cn(CCOC)nc1-c1cc2c(cn1)CN(c1c(F)c(OC)cc(OC)c1F)C(=O)C21CC1 [Example 32, N-(3-(2′-(2,6-difluoro-3,5-dimethoxyphenyl)-3′-oxo-2′,3′-dihydro-1′H-spiro[cyclopropane-1,4′-[2,7]naphthyridine]-6′-yl)-1-(2-methoxyethyl)-1H-pyrazol-4-yl)acrylamide] | > 200 | >100 | >100 | >100 | < 10 | > 200 | > 200
C=CC(=O)Nc1cn(CCOC(F)(F)F)nc1-c1cc2c(cn1)CN(c1c(F)c(OC)cc(OC)c1F)C(=O)C21CC1 [Example 33, N-(3-(2′-(2,6-difluoro-3,5-dimethoxyphenyl)-3′-oxo-2′,3′-dihydro-1′H-spiro[cyclopropane-1,4′-[2,7]naphthyridine]-6′-yl)-1-(2-(trifluoromethoxy)ethyl)-1H-pyrazol-4-yl)acrylamide] | > 200 | >100 | >100 | >100 | < 10 | > 200 | > 200
C=CC(=O)Nc1cn(CCN2CCOCC2)nc1-c1cc2c(cn1)CN(c1c(F)c(OC)cc(OC)c1F)C(=O)C21CC1 [Example 34, N-(3-(2′-(2,6-difluoro-3,5-dimethoxyphenyl)-3′-oxo-2′,3′-dihydro-1′H-spiro[cyclopropane-1,4′-[2,7]naphthyridine]-6′-yl)-1-(2-morpholinoethyl)-1H-pyrazol-4-yl)acrylamide] | > 200 | >100 | >100 | >100 | < 10 | > 200 | > 200
C=CC(=O)Nc1cn(CC2CCOCC2)nc1-c1cc2c(cn1)CN(c1c(F)c(OC)cc(OC)c1F)C(=O)C21CC1 [Example 35, N-(3-(2′-(2,6-difluoro-3,5-dimethoxyphenyl)-3′-oxo-2′,3′-dihydro-1′H-spiro[cyclopropane-1,4′-[2,7]naphthyridine]-6′-yl)-1-((tetrahydro-2H-pyran-4-yl)methyl)-1H-pyrazol-4-yl)acrylamide] | > 200 | >100 | >100 | >100 | < 10 | > 200 | > 200
C=CC(=O)Nc1cn(CC(=O)N(C)C)nc1-c1cc2c(cn1)CN(c1c(F)c(OC)cc(OC)c1F)C(=O)C21CC1 [Example 36, N-(3-(2′-(2,6-difluoro-3,5-dimethoxyphenyl)-3′-oxo-2′,3′-dihydro-1′H-spiro[cyclopropane-1,4′-[2,7]naphthyridine]-6′-yl)-1-(2-(dimethylamino)-2-oxoethyl)-1H-pyrazol-4-yl)acrylamide] | > 200 | >100 | >100 | >100 | < 10 | > 200 | > 200
C=CC(=O)Nc1ccc(C)c(-c2ncc3c(n2)C2(CC2)C(=O)N(c2c(F)c(OC)cc(OC)c2F)C3)c1 [Example 37, N-(3-(6′-(2,6-difluoro-3,5-dimethoxyphenyl)-7′-oxo-6′,7′-dihydro-5′H-spiro[cyclopropane-1,8′-pyrido[4,3-d]pyrimidine]-2′-yl)-4-methylphenyl)acrylamide] | > 200 | >100 | >100 | >100 | < 10 | > 200 | > 200
